# From article PMC3303751, “Development of Tyrosine-Based Radiotracer ^99mTc-N4-Tyrosine for Breast Cancer Imaging” (Journal of Biomedicine and Biotechnology, 2012)
# What was measured:
# [1] = Partition coefficient (1-octanol/sterile water); type: physicochemical; conditions: room temperature
# Procedure: To determine the lipophilicity, 20 μL of ^99mTc-N4-Tyrosine was added into an equal volume mixture of 1-octanol and sterile water in a centrifuge tube. The mixture was vortexed at room temperature for 1 minute and then centrifuged at 5,000 rpm for 5 minutes to allow phase separation. From each phase, 0.1 mL of the aliquot was taken out, and the radioactivity was measured by gamma counter (Cobra Quantum, Packard, MN, USA). The measurement was repeated 3 times, and care was taken to avoid cross-contamination between the phases. The partition coefficient value, expressed as log P, was calculated using the following equation:
# (1) Log P= log(radioactivity in 1‐octanol layer/radioactivity in sterile water layer)
# [2] = test system: rat breast tumor cell line 13762; test: In vitro cellular uptake; type: cell-based; conditions: 13762 cells
# Procedure: Rat breast tumor cell line 13762 (American Type Culture Collection, Rockville, MD, USA) was used for both in vitro studies and to create the animal model for in vivo evaluation. All cells were maintained in Dulbecco's modified Eagle's medium and nutrient mixture F-12 Ham (DMEM/F12; GIBCO, Grand Island, NY) at 37°C in a humidified atmosphere containing 5% CO2.
# For in vitro cellular uptake analysis, cells were plated onto 6-well tissue culture plates (2 × 10^5 cells/well) 48 hours before adding the radiotracers and incubated with ^99mTc-N4-Tyrosine (0.05 mg/well, 8 μCi/well), ^99mTc-N4 (0.025 mg/well, 8 μCi/well), or ^18F-FDG (8 μCi/well) for 0–4 hours. After incubation, cells were washed with ice-cold phosphate-buffered solution twice and detached using a treatment of 0.5 mL of trypsin for 5 minutes. Cells were then collected, and the radioactivity of the cells was measured in triplicate with a gamma counter (Cobra Quantum). Radioactivity was expressed as mean ± standard deviation (SD) percent of cellular uptake (%Uptake).
# [3] = test system: breast tumor (13762) and turpentine oil-induced inflammation; test: Tumor and inflammation uptake comparison, planar scintigraphy; type: in vivo, Fischer 344 rats; conditions: tumor- and inflammation-bearing rats
# Procedure: To investigate whether ^99mTc-N4-Tyrosine can differentiate tumor tissue from inflammatory tissue, a rat model bearing both a mammary tumor and tissue with turpentine oil-induced inflammation was created. Rat breast tumor cells (from cell line 13762; 10^5 cells/0.1 mL phosphate-buffered solution per rat) were injected into the right calf muscles of 3 female Fischer 344 rats. After the tumors reached 1 cm in diameter, turpentine oil (0.1 mL/rat) was injected into the left calf muscles of the rats to induce inflammation. The anesthetized rats were injected intravenously with ^99mTc-N4-Tyrosine 24 hours after the turpentine injection. Planar scintigraphic images were acquired at 30, 120, and 240 minutes after the ^99mTc-N4-Tyrosine injection, and ROIs of the tumor, inflamed tissue, and muscle were used to calculate the tumor-to-muscle ratios (T/Ms), inflammation-to-muscle ratios (I/Ms), and tumor-to-inflammation ratios (T/Is), respectively. The same animal model was used to evaluate ^18F-FDG. Micro-PET imaging of ^18F-FDG was performed using an R4 micro-PET scanner (Concorde Microsystems, Knoxville, TN, USA). Three breast tumor- and inflammation-bearing rats were injected intravenously with ^18F-FDG (500 μCi/rat), and dynamic PET scans with a spatial resolution of 2.2 mm were obtained at 30, 60, and 90 minutes after ^18F-FDG injection. PET images were reconstructed by using the ordered subset expectation maximization (OSEM) algorithm. T/M, I/M, and T/I ratios were calculated using the regional radioactivity concentrations (μCi/cm^3) that were estimated from the average pixels within ROIs drawn around the tumor, inflamed tissue, or muscle on transverse slices of the reconstructed image sets.
# [4] = test system: breast tumor cell line 13762 tumors; test: Planar scintigraphic imaging in breast tumor-bearing rats; type: in vivo, Fischer 344 rats; conditions: for Tumor %ID (percent of injected dose in the tumor) / tumor-to-muscle (T/M) ratio: i.v. 300 μCi/rat
# Procedure: Cells from the breast tumor cell line 13762, suspended in phosphate-buffered solution (10^5 cells/0.1 mL solution per rat), were injected subcutaneously into the right calf muscle of female Fischer 344 rats (n = 9). Planar scintigraphic imaging of ^99mTc-N4-Tyrosine was performed 12–14 days after inoculation when tumors reached approximately 1 cm in diameter. The breast tumor-bearing rats (n = 3/time point) were anesthetized and injected intravenously with ^99mTc-N4-Tyrosine (0.3 mg/rat, 300 μCi/rat), and images were acquired at 30, 120, and 240 minutes after administration of tracers. Planar scintigraphic images were obtained using M-CAM (Siemens Medical Solutions, Hoffman Estates, IL, USA) equipped with a low-energy high-resolution collimator. Computer-outlined regions of interest (ROIs in counts per pixel) between tumor and muscle tissue were used to calculate tumor-to-muscle (T/M) ratios. Percent of injected dose (%ID) in the tumor was also calculated from the reference standard, which was 1/10 of the original injection activity of ^99mTc-N4-Tyrosine.
# [5] = Tissue distribution in normal rats; type: in vivo, Fischer 344 rats; conditions: for tissue distribution, Blood / tissue distribution, Bone and joint / tissue distribution, Brain / tissue distribution, Heart / tissue distribution, Intestine / tissue distribution, Kidney / tissue distribution, Liver / tissue distribution, Lung / tissue distribution, Muscle / tissue distribution, Pancreas / tissue distribution, Spleen / tissue distribution, Stomach / tissue distribution, Thyroid: i.v.
# Procedure: Tissue distribution studies of ^99mTc-N4-Tyrosine were conducted using normal female Fischer 344 rats (150 ± 25 g, n = 9). The rats were divided into 3 groups, and each rat was injected intravenously with 25 ± 0.5 μCi of ^99mTc-N4-Tyrosine. Each group was examined at 1 of 3 time points (0.5, 2, or 4 hours after injection). At each time point, the rats were killed, and the selected tissues were excised, weighed, and measured for radioactivity by gamma counter. For each sample, radioactivity was expressed as mean percentage of the injected dose per gram of tissue wet weight (%ID/g). Counts from a 1/10 diluted sample of the original injection were used as a reference.
# [6] = Blood clearance in normal rats; type: in vivo; conditions: normal female Fischer 344 rats, i.v. 30 μCi
# Procedure: All animal work was carried out in the Small Animal Imaging Facility at MD Anderson under a protocol approved by the Institutional Animal Care and Use Committee. For blood clearance analysis, 3 normal female Fischer 344 rats (150 ± 25 g; Harlan Sprague-Dawley, Indianapolis, IN, USA) were intravenously injected with 30 μCi of ^99mTc-N4-Tyrosine. Blood samples (n = 3/rat) were drawn from each rat through the lateral tail vein by microliter pipette (10 μL) at several time points between 5 minutes and 24 hours after injection. The blood samples were measured for radioactivity by gamma counter, and the radioactivity was expressed as a percentage of the injected dose per gram of blood (%ID/g).
# [7] = OLINDA/EXM dosimetry estimates; set-up: species or system human (70 kg standard man model)
# Source text: Rat absorbed dose estimates for ^99mTc-N4-Tyrosine were computed from biodistribution data. Individual organ and whole-body time-activity curves were fitted to exponential functions using OLINDA/EXM software (version 1.1; Vanderbilt University, Nashville, TN, USA). These functions were then integrated analytically to determine the area under the curve to yield the residence time of ^99mTc-N4-Tyrosine in each organ. It was assumed that the injected activity of ^99mTc-N4-Tyrosine was uniformly distributed throughout the body immediately following injection. Mass correction factors were used to account for the different ratios of organs to total body weight and different scaling of residence times between rats and humans. Residence times were then used to calculate target organ absorbed radiation doses for a 70 kg standard man model using the OLINDA/EXM software.
# [8] = 15 mCi per patient, 70 kg adult man
substance,measurement,setting,value
"^99mTc-O-[3-(1,4,8,11-tetraazabicyclohexadecane)-propyl]-tyrosine [^99mTc-N4-Tyrosine]",log P,[1],−2.83 ± 0.082
same,mean %Uptake compared with ^18F-FDG,[2]; 8 μCi/well,much higher than that of ^18F-FDG
same,cellular uptake kinetics (%Uptake),[2]; incubation 15-240 minutes,increased dramatically up to 240 minutes
same,inflammation-to-muscle (I/M) ratio,[3]; 30 min,4.26
same,tumor-to-inflammation (T/I) ratio,[3]; 30 min,1.2
same,tumor-to-muscle (T/M) ratio,[3]; 30 min,5.12
same,inflammation-to-muscle (I/M) ratio,[3]; 120 min,3.62
same,tumor-to-inflammation (T/I) ratio,[3]; 120 min,1.14
same,tumor-to-muscle (T/M) ratio,[3]; 120 min,4.11
same,inflammation-to-muscle (I/M) ratio,[3]; 240 min,2.45
same,tumor-to-inflammation (T/I) ratio,[3]; 240 min,1.32
same,tumor-to-muscle (T/M) ratio,[3]; 240 min,3.24
same,tumor-to-inflammation (T/I) ratios,[3]; all time points,greater than 1
same,tumor detection by planar scintigraphic imaging,"[4]; all time points (30, 120, 240 minutes)",clearly detected
same,Tumor %ID (percent of injected dose in the tumor),[4]; 30 minutes,1.82 %ID
same,tumor-to-muscle (T/M) ratio,[4]; 30 minutes,5.12
same,Tumor %ID (percent of injected dose in the tumor),[4]; 120 minutes,1.87 %ID
same,tumor-to-muscle (T/M) ratio,[4]; 120 minutes,4.88
same,Tumor %ID (percent of injected dose in the tumor),[4]; 240 minutes,1.71 %ID
same,tumor-to-muscle (T/M) ratio,[4]; 240 minutes,5.2
same,"tissue distribution, Blood",[5]; 30 min after injection,0.88 %ID/g
same,"tissue distribution, Bone and joint",[5]; 30 min after injection,0.24 %ID/g
same,"tissue distribution, Brain",[5]; 30 min after injection,0.03 %ID/g
same,"tissue distribution, Heart",[5]; 30 min after injection,0.21 %ID/g
same,"tissue distribution, Intestine",[5]; 30 min after injection,0.34 %ID/g
same,"tissue distribution, Kidney",[5]; 30 min after injection,11.05 %ID/g
same,"tissue distribution, Liver",[5]; 30 min after injection,1.15 %ID/g
same,"tissue distribution, Lung",[5]; 30 min after injection,0.50 %ID/g
same,"tissue distribution, Muscle",[5]; 30 min after injection,0.07 %ID/g
same,"tissue distribution, Pancreas",[5]; 30 min after injection,0.17 %ID/g
same,"tissue distribution, Spleen",[5]; 30 min after injection,0.94 %ID/g
same,"tissue distribution, Stomach",[5]; 30 min after injection,0.20 %ID/g
same,"tissue distribution, Thyroid",[5]; 30 min after injection,0.34 %ID/g
same,"tissue distribution, Blood",[5]; 120 min after injection,0.20 %ID/g
same,"tissue distribution, Bone and joint",[5]; 120 min after injection,0.15 %ID/g
same,"tissue distribution, Brain",[5]; 120 min after injection,0.02 %ID/g
same,"tissue distribution, Heart",[5]; 120 min after injection,0.06 %ID/g
same,"tissue distribution, Intestine",[5]; 120 min after injection,0.13 %ID/g
same,"tissue distribution, Kidney",[5]; 120 min after injection,12.34 %ID/g
same,"tissue distribution, Liver",[5]; 120 min after injection,0.70 %ID/g
same,"tissue distribution, Lung",[5]; 120 min after injection,0.19 %ID/g
same,"tissue distribution, Muscle",[5]; 120 min after injection,0.03 %ID/g
same,"tissue distribution, Pancreas",[5]; 120 min after injection,0.07 %ID/g
same,"tissue distribution, Spleen",[5]; 120 min after injection,0.76 %ID/g
same,"tissue distribution, Stomach",[5]; 120 min after injection,0.08 %ID/g
same,"tissue distribution, Thyroid",[5]; 120 min after injection,0.10 %ID/g
same,"tissue distribution, Blood",[5]; 240 min after injection,0.17 %ID/g
same,"tissue distribution, Bone and joint",[5]; 240 min after injection,0.12 %ID/g
same,"tissue distribution, Brain",[5]; 240 min after injection,0.01 %ID/g
same,"tissue distribution, Heart",[5]; 240 min after injection,0.05 %ID/g
same,"tissue distribution, Intestine",[5]; 240 min after injection,0.11 %ID/g
same,"tissue distribution, Kidney",[5]; 240 min after injection,12.40 %ID/g
same,"tissue distribution, Liver",[5]; 240 min after injection,0.67 %ID/g
same,"tissue distribution, Lung",[5]; 240 min after injection,0.14 %ID/g
same,"tissue distribution, Muscle",[5]; 240 min after injection,0.02 %ID/g
same,"tissue distribution, Pancreas",[5]; 240 min after injection,0.05 %ID/g
same,"tissue distribution, Spleen",[5]; 240 min after injection,0.63 %ID/g
same,"tissue distribution, Stomach",[5]; 240 min after injection,0.06 %ID/g
same,"tissue distribution, Thyroid",[5]; 240 min after injection,0.09 %ID/g
same,stability in vivo,[5]; inferred from low thyroid and stomach uptake,high stability in vivo
same,plasma half-life of the distribution phase (t1/2α),[6],9.31 ± 0.759 min
same,plasma half-life of the elimination phase (t1/2β),[6],90.14 ± 1.901 min
same,"Human dose (15 mCi), Adrenals",[7]; [8],2.58E − 01 rem
same,"Human dose (15 mCi), Brain",[7]; [8],2.61E − 02 rem
same,"Human dose (15 mCi), Breasts",[7]; [8],7.08E − 02 rem
same,"Human dose (15 mCi), Effective dose",[7]; [8],1.22E − 01 rem
same,"Human dose (15 mCi), Effective dose equivalent",[7]; [8],3.17E − 01 rem
same,"Human dose (15 mCi), Gallbladder wall",[7]; [8],2.10E − 01 rem
same,"Human dose (15 mCi), Heart wall",[7]; [8],4.73E − 01 rem
same,"Human dose (15 mCi), Kidneys",[7]; [8],2.70E + 00 rem
same,"Human dose (15 mCi), Liver",[7]; [8],3.06E − 01 rem
same,"Human dose (15 mCi), Lower large intestine wall",[7]; [8],9.00E − 02 rem
same,"Human dose (15 mCi), Lungs",[7]; [8],1.26E − 01 rem
same,"Human dose (15 mCi), Muscle",[7]; [8],7.44E − 02 rem
same,"Human dose (15 mCi), Osteogenic cells",[7]; [8],2.90E − 01 rem
same,"Human dose (15 mCi), Ovaries",[7]; [8],9.80E − 02 rem
same,"Human dose (15 mCi), Pancreas",[7]; [8],2.09E − 01 rem
same,"Human dose (15 mCi), Red marrow",[7]; [8],1.06E − 01 rem
same,"Human dose (15 mCi), Skin",[7]; [8],4.95E − 02 rem
same,"Human dose (15 mCi), Small intestine",[7]; [8],1.50E − 01 rem
same,"Human dose (15 mCi), Spleen",[7]; [8],3.14E − 01 rem
same,"Human dose (15 mCi), Stomach wall",[7]; [8],1.38E − 01 rem
same,"Human dose (15 mCi), Testes",[7]; [8],4.40E − 02 rem
same,"Human dose (15 mCi), Thymus",[7]; [8],1.27E − 01 rem
same,"Human dose (15 mCi), Thyroid",[7]; [8],6.92E − 02 rem
same,"Human dose (15 mCi), Total Body",[7]; [8],1.10E − 01 rem
same,"Human dose (15 mCi), Upper large intestine wall",[7]; [8],1.36E − 01 rem
same,"Human dose (15 mCi), Urinary bladder wall",[7]; [8],7.71E − 02 rem
same,"Human dose (15 mCi), Uterus",[7]; [8],9.80E − 02 rem
same,Total rem absorbed by each organ versus US FDA limits for radioactive research drugs,[7]; proposed injection of 15 mCi per patient,below these limits
